Laboratory results from patent US20170209483A1, “ANTIBIOTIC ACTIVITY OF IRON SEQUESTERING POLYMERS” (UNIVERSITY OF KANSAS, priority 2014, published 2017).
Counter-ions that a name gives are not always drawn.

Tests used:
[1] = tested on: Pseudomonas aeruginosa strain PA01 wild type; experiment: PAI-DHBA as an adjuvant to conventional antibiotics on bacterial growth; assay type: cell-based; settings: Ciprofloxacin 1 μg/mL added at 5 h, read at 9 h, versus control
P. aeruginosa = settings: concentrations used reflect reported MICs; cited from earlier work
[2] = tested on: Pseudomonas aeruginosa strain PA01 wild type; experiment: Comparison to traditional iron chelating agents, bacterial counts; assay type: cell-based; settings: EDTA or HBED 500 μM, PAI-DHBA 20 mg, added at inoculation; 5, 6 and 12 h
[3] = in vivo; cited from earlier work

Row | Molecule | Reported MIC (P. aeruginosa) | Bacterial count (CFU/mL) versus control (no chelator) [2] | also measured
1 | O=C(O)c1cn(C2CC2)c2cc(N3CCNCC3)c(F)cc2c1=O [Ciprofloxacin, Ciprofloxacin hydrochloride] | 1 µg/mL |  | Overall reduction in CFU/mL [1]: approximately 4 log units
2 | O=C(O)CN(CCN(CC(=O)O)Cc1ccccc1O)Cc1ccccc1O [HBED, N,N-bis (2-hydroxybenzyl) ethylenediamine-N,N-diacetic acid] |  | small, transient difference | 
3 | CC(=O)N(O)CCCCCNC(=O)CCC(=O)N(O)CCCCCNC(=O)CCC(=O)N(O)CCCCCN [DFO, deferoxamine] |  |  | Plasma half-life [3]: ~5.5 min
4 | sodium ethylene diamine tetraacetate [EDTA] |  | small, transient difference | 
5 | Gentamicin sulfate | 24 µg/mL |  | 
